What all share (experiment): inhibition of tumour cell growth, NCI panel, 48 h
In assay [1] the test system is EKVX NSCLC.
The subject of assay [2] is KM20L2 colon.
Assay [3] has as its system M19-MEL melanoma.
The subject of assay [4] is OVCAR-5 ovarian.
Assay [5] concerns RPMI-8226 leukemia.
The test system of assay [6] is SK-MEL-5 melanoma.
The subject of assay [7] is UACC-62 melanoma.
The test system of assay [8] is HCC-2998 colon.
The subject of assay [9] is MCF7 breast.
The test system of assay [10] is NCI/ADR-RES ovarian.
Assay [11] concerns MDA-MB-231 breast.

Where “and” joins values, the source holds several entries; their conditions need not be identical. Equal values may be shown once.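 How tested: cells in 96-well plates exposed to compound for 48 hours at five concentrations. Here, GI50 denotes the concentration required for 50% inhibition of growth. Definition used: TGI = concentration required for complete inhibition of growth.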

Regarding `O=C1NC2(C=Cc3c(ccc4ccccc34)O2)Oc2ccccc21` (configuration not stated), the TGI is 82.3 µM in [1]; above 100 µM in assay [2]; above 100 µM in assay [3]; above 100 µM in assay [4]; 47.6 µM in assay [5]; 29.5 µM in assay [6]. For the same compound, the TGI in assay [7] was above 100 µM.
With `COC[C@@H](Cc1ccc(OC)c(OC)c1)[C@@H](COC)Cc1ccc(OC)c(OC)c1`, the TGI in [1], in assay [8], in assay [2], in [3], in [4] and in assay [6] was above 100 µM throughout. Further, in assay [7], the TGI was above 100 µM.
`CC(C)N(C(C)C)P(OCCC#N)OC1CC(n2cnc3c(=O)[nH]cnc32)OC1COC(=O)NCCCCCCNC(=O)OC(C)(C)c1ccc(-c2ccccc2)cc1` (configuration not stated): the TGI in [1] is above 100 µM; in [8], 65.1 µM; in [2], above 100 µM; in assay [3] it was 42.2 µM; in assay [4], above 100 µM; in assay [5], 76.1 µM. Further, the TGI amounted to 40.9 µM in assay [6] and 35.3 µM in assay [7].
`COC(=O)C1C2CC3C(OC(=O)C31)C2OC(=O)[C@](OC)(c1ccccc1)C(F)(F)F` (some centres not stated): the TGI in assay [1], in assay [8], in [2], in assay [3], in assay [4] and in assay [5] was above 100 µM throughout. The compound further gave a TGI in assay [6] above 100 µM.
`CCN(CC)CCNc1ccc2ncn3c4cc(=O)ccc4c(O)c1c23`: the TGI in assay [1] was 23 µM; in assay [8], 15.6 µM; in [2] it was 16.4 µM; in assay [3], 16.5 µM; in assay [4], 32.5 µM; in assay [5], 9.97 µM. For the same compound, the TGI in assay [6] came to 12.1 µM; in assay [7], 14 µM.
For `c1ccc(C2[C@@H]3CCCc4ccccc4C3=NN2c2ccccc2)cc1` (some centres not stated), the TGI in [1], in assay [8], in assay [2], in [3], in assay [4] and in assay [5] was above 100 µM throughout. In addition, the TGI in [6] turned out to be 47.1 µM.
Regarding `CCCCCCCCCCSCC(CO)NC(=O)/C=C/c1c(C)[nH]c(=O)[nH]c1=O` (configuration not stated), the TGI was above 42.3 µM in assay [1]; 7.38 µM and 11.5 µM in assay [8]; above 50 µM in assay [2]; 14.8 µM and > 39.5 µM in [3]; > 19.3 µM and 17.4 µM in [9]; above 50 µM in assay [10]. Besides, the TGI was above 50 µM in [4]; above 50 µM in [5]; 8.06 µM and 13.1 µM in assay [6]; 7.71 µM and 9.48 µM in assay [7]. In assay [5], the GI50 is 19.7 µM.
For the compound `COc1ccc(C2C(Cl)C(=O)N2NC(=O)Cc2ccccc2)cc1OC` (configuration not stated), the TGI in assay [1], in assay [8], in [2], in assay [3], in assay [4] and in assay [5] was above 100 µM throughout. Also, the TGI in assay [6] and in assay [7] was above 100 µM in each case.
Consider `O=C1C[C@H](c2ccc(O)c(O)c2)Oc2cc(O)cc(O)c21`, for which the TGI in [1], in assay [8], in assay [2], in [3], in assay [4] and in [5] was above 100 µM throughout. Further, the TGI in assay [6] and in assay [7] was above 100 µM in each case.
In the case of `OCC(O)C(O)C(O)C(O)/C=N/Nc1nc(O)c(/C=C2\C=Nc3ccccc32)[nH]1` (configuration not stated), the TGI in [1], in assay [8], in assay [9], in assay [11], in assay [10] and in [4] was above 100 µM throughout. Besides, the TGI in [5], in assay [6] and in assay [7] was above 100 µM throughout.
Consider `COC(=O)[C@H](CCSC)NC(=O)c1ccc(CNC(=O)/C(C)=C/c2ccccc2)cc1`, for which the TGI in assay [1] is above 100 µM; in assay [8], 83.6 µM; in assay [9], above 100 µM; in [11], above 100 µM; in assay [10], 68.5 µM; in [4] it was above 100 µM. Further, the TGI in [5], in assay [6] and in assay [7] was above 100 µM in each case.
Take `O=C(O)CC(O)(C(=O)O)C(O)C(=O)O` (configuration not stated): the TGI in [1], in assay [8], in assay [9], in assay [11], in assay [10] and in [4] was above 1000 µM in each case. Further, the TGI in [5], in assay [6] and in [7] was above 1000 µM in each case.
As to `COc1cccc(-c2cc(=O)c3cc(Cl)cnc3[nH]2)c1`, the TGI was above 100 µM in assay [1]; 3.83 µM in [8]; above 78.8 µM in [9]; above 65.5 µM in [11]; 0.783 µM in assay [10]; above 100 µM in assay [4]. The TGI in [5] was above 62.1 µM; in [6], 7.33 µM; in [7], above 55.6 µM.
On to `C=CCC(CNC(=O)OCc1ccccc1)OC(=O)OCc1ccccc1` (configuration not stated), for which the TGI in [1], in [8], in assay [9], in assay [11], in assay [10] and in assay [4] was above 100 µM throughout. Besides, the TGI in assay [5] was 68.1 µM; in assay [6], 56 µM; in [7] it was above 100 µM.
Turning to `CC1CN=C(c2ccc(COc3ccc(C4=NCC(C)N4)cc3)cc2)N1` (configuration not stated), the TGI in assay [1], in [8], in assay [9], in assay [11], in [10] and in assay [4] was above 100 µM in each case. Also, the TGI in assay [5], in assay [6] and in [7] was above 100 µM each time.
For the compound `Nc1ccc(-c2nc3ccccc3s2)cc1Br`, the TGI in [1], in [8], in [9], in assay [11], in assay [10] and in [4] was above 100 µM in each case. The TGI in assay [5], in [6] and in assay [7] was above 100 µM throughout.
For the compound `CC(=O)n1ccc2c(Cl)ncnc21`, the TGI in assay [1], in assay [8], in assay [2], in [3], in assay [5] and in assay [6] was above 100 µM throughout. The compound also returned a TGI in assay [7] above 100 µM.
Regarding `CN(C)CCNc1nc2c(no[n+]2[O-])c2ccccc12`, the TGI was 73.9 µM in assay [1]; 59.2 µM in assay [8]; above 100 µM in assay [9]; 34.3 µM in [11]; 58.7 µM in [10]; above 100 µM in assay [4]. The TGI is above 100 µM in assay [5], 28.4 µM in assay [6] and 41.4 µM in assay [7].
Consider `O=[N+]([O-])c1cc(Cl)ccc1S(=O)(=O)N1CCCc2cc(Cl)ccc21`, for which the TGI in assay [1], in assay [8], in [9], in assay [11], in assay [10] and in assay [4] was above 100 µM throughout. Also, the TGI in [5], in assay [6] and in [7] was above 100 µM throughout.
Consider `C=C1c2nc3ccccc3n2C=C(c2ccc(OC)cc2)N1c1ccc(OCCN2CCOCC2)cc1`, for which the TGI in [1], in assay [8], in assay [9], in assay [11], in assay [10] and in assay [4] was above 100 µM in each case. In addition, the TGI is 9.05 µM in [5], above 100 µM in [6] and above 100 µM in [7].
Consider `CCOP(=O)(OCC)C(C)(C)OC(=O)NC#N`, for which the TGI in assay [1], in assay [8], in assay [9], in assay [11], in assay [10] and in assay [4] was above 100 µM each time. Further, the TGI in assay [5], in [6] and in [7] was above 100 µM in each case.
Consider `CC(=O)N(CN1C(=O)CCC1C(=O)O)c1ccccc1Cl` (configuration not stated), for which the TGI in [1], in [8], in assay [9], in assay [11], in [10] and in assay [4] was above 100 µM in each case. In addition, the TGI in assay [5], in [6] and in assay [7] was above 100 µM in each case.
Regarding `Cc1nc2c(=O)[nH]c3ccc(Cl)cc3c2o1`, the TGI in assay [1], in [8], in assay [9], in assay [11], in [10] and in [4] was above 100 µM in each case. Further, the TGI in assay [5], in assay [6] and in assay [7] was above 100 µM in each case.
With `CC(=O)O[C@H]1CC[C@H]2[C@@H]3CCC(C(C)=O)[C@H](C(=O)O)[C@H]3CC[C@]12C` (some centres not stated), the TGI in assay [1], in assay [8], in [9], in [11], in assay [10] and in [4] was above 100 µM in each case. Also, the TGI in assay [5], in assay [6] and in assay [7] was above 100 µM each time.
With `CC[C@H](C)C1=C(OC(C)=O)[N@+]2([O-])Oc3ccc(-c4c(OC(C)=O)c(OC(C)=O)c(-c5ccc(OC(C)=O)cc5)c(OC(C)=O)c4OC(C)=O)cc3O[C@]2([C@@H](C)CC)C(=O)N1OC(C)=O`, the TGI in assay [1] is 22.5 µM; in assay [8], 0.031 µM; in assay [9] it was above 50 µM; in assay [11], above 50 µM; in assay [10], above 50 µM; in assay [4] it was above 50 µM. For the same compound, the TGI was found to be 22.4 µM in assay [5], 22.5 µM in assay [6] and 17.7 µM in [7].
For `CCOP(=O)(OCC)C(Nc1ccc(F)cc1)c1ccccc1` (configuration not stated), the TGI in assay [1], in assay [8], in assay [9], in [11], in assay [10] and in [4] was above 100 µM in each case. Further, the TGI in assay [5], in assay [6] and in assay [7] was above 100 µM each time.
Turning to `c1ccc(CCn2cncn2)cc1`, the TGI in assay [1], in [8], in [2], in assay [3], in [4] and in assay [6] was above 100 µM in each case. Moreover, the TGI in assay [7] was above 100 µM.
As to `C=CC1(c2ccc(OC)cc2)OCCCO1`, the TGI in assay [1] is 34.6 µM; in assay [8], above 100 µM; in [9], above 100 µM; in assay [11], above 100 µM; in assay [10], above 100 µM; in assay [4] it was above 100 µM. Further, the TGI in assay [5], in assay [6] and in [7] was above 100 µM each time.
Take `OC(CN1CCCCC1)c1ccc(/C=C/c2ccc(Cl)cc2)cc1` (configuration not stated): the TGI in [1], in assay [8], in assay [9], in [11], in [10] and in assay [4] was above 100 µM each time. Moreover, the TGI in [5] is above 100 µM; in assay [6], 43.8 µM; in assay [7] it was 44.9 µM.

These data come from PubChem BioAssay (NCI).
